Measurements reported in patent publication US20050014144A1, “Methods” (priority 2001, published 2005).

How the values were obtained:
Plasmopara viticola = test: in planta dose response bioassay with azoxystrobin on vine seedlings (EC50, EC95); assay type: in vivo; conditions: for EC95: vine seedlings, azoxystrobin rates in ppm (Table 31)
Method: The in planta dose response bioassay was performed on 10 to 14 days old vine seedlings grown in 1.5″ pots. Six rates of azoxystrobin were chosen from preparatory tests, as the most suitable for showing any shifts in sensitivity to azoxystrobin in the dose response bioassay (Table 31).
The azoxystrobin preparation used for all the tests was P53, a technical grade powder with a purity of >97% azoxystrobin. This was kept consistent across all the tests to eliminate any variation caused by differences in chemical purity or physical state. Five seedlings were used per azoxystrobin rate per sample, and 10 seedlings were used for the no azoxystrobin control (sprayed with de-ionised water only).
The chemical was sprayed, with a Devilbiss spray gun at 10 psi, to maximum retention onto the adaxial surface of the 2nd true leaf (test leaf) of each seedling, with care being taken to continuously swirl the solution in the spray gun to prevent local fluctuations in azoxystrobin concentration: The seedlings were then carefully placed in a growth room (Day: 24° C., 60% RH, 4-5000 lux; Night: 17° C., 95% RH; Day length: 16 hours) for 24 hours.
After this time each test leaf was inoculated with the samples I112 and I116b. Both samples had passed through 1 cycle of subculture on 3″ vines since being removed from low temperature storage (FIG. 14). The inoculum from each sample, obtained from the 3″ vines, was diluted to 5,000 sporangia per ml using a dry haemocytometer (Improved Neubayer, depth 0.1 mm, 1/400 mm^2, Hawksley Crystallite, BS 748).
The samples were inoculated, with a Devilbiss spray gun at 10 psi, to maximum retention onto the abaxial surface of the test leaf of each seedling, with the suspension being swirled frequently in the spray gun to keep sporangia from accumulating at the bottom. The test seedlings were incubated in an ambient room for twenty-four hours. The seedlings were then randomised and placed in a growth room (Day: 24° C., 60% RH, 4-5000 lux; Night: 17° C., 95% RH; Day length: 16 hours) for 6 days, before being returned to the ambient room for a further 24 hours to stimulate sporulation.
The seedlings were assessed directly after their removal from the ambient room for the second time. Disease assessment was based on the percentage area of the leaf covered by sporulating lesions and discolouration, and recorded in 5% increments. […] The data was then analysed using the statistical program AGSTAT.

Pythium aphanidermatum = test: Azoxystrobin sensitivity of P. aphanidermatum isolates on treated perennial ryegrass turf (percent infected turf area); assay type: in vivo
Method: To enable an assessment of axoxystrobin (strobilurin) resistance of the above isolates, perennial ryegrass (Lolium perenne L.) was grown in 4×4 inch square plastic pots containing sandy soil. Agsorb absorbent clay (extra fine red) was used to anchor the seeds and provide a high level of moisture around the seed to aid germination. The pots were watered using a fog nozzle and covered with paper to reduce evaporation. A fog nozzle was used 3-5 times a day to water the turf pots. When seedlings emerged, the paper cover was removed from the pots to prevent etiolation and watering was reduced to twice daily using a fan nozzle. The pots were maintained for 12-16 days in a glass-house (17-32° C.; 14 h photoperiod) prior to treatment. During this time, the turf was cut twice with electric Black and Decker hand-held clippers.
Pythium aphanidermatum cultures of the isolates summarized in FIG. 1 were maintained on potato dextrose agar (PDA) amended with streptomycin sulfate at 0.05 g/L. Organically grown rye grains (50 g) were hydrated overnight with 40 ml deionized water placed in 250 ml plastic (polyvinyl-chloride) flasks. The flasks were autoclaved twice on successive days for 45 minutes each time. After the berries cooled, ten 1×1 cm agar plugs of P. aphanidermatum were added to each flask. Flasks containing infected rye-berries were incubated in a growth chamber (26° C.; 14 h photoperiod) for seven days to allow the fungi to colonize the rye grains. The fungal-colonized rye grains were then used to inoculate the turf; by placing four berries on the center surface of each pot.
Azoxystrobin treatments were applied in an automated spray cabinet using a flat fan nozzle (8004E) positioned 18 inches over the turf with a spray volume of 3 US gal/1000 sq.ft. To prevent carry over from treatment to treatment, applications were made starting with the lowest concentration and ending with the highest concentration. The spray nozzle was washed once with acetone and twice with deionized water (100 ml/rinse) between treatments. Turf was sprayed with Heritage® (azoxystrobin) at rates of 0.4, 0.133, 0.044, 0.015, 0.005 and 0 oz.Heritage/1000 sq.ft. Following application, the turf was allowed to dry and was transferred to a growth chamber (25-28° C.; 14 h photoperiod) overnight.
Turf was inoculated with fungal-colonized rye-berries one day after application as previously described. All treatments were then randomized and placed in a dew chamber (25-28° C.; 14 h photoperiod) for four days. The turf was moved to a growth room 24 h prior to disease assessment. The percent of Pythium-infected turf area in each pot was assessed five days after inoculation With the exception of isolate 99-150, all the isolates of P. aphanidermatum were sensitive to azoxystrobin (Table1). […] This is the first report of resistance to azoxystrobin of an isolate of the plant pathogenic fungus P. aphanidermatum.
The sensitivity of the resistant isolate 99-150 and sensitive isolate P32R was then confirmed by testing in two separate experiments using rates up to nine times higher than the recommended commercial rate of Heritage® (azoxystrobin): 3.6, 1.2, 0.4, 0.133, 0.044, 0.015, 0.005 and 0 oz/1000 sq.ft.

[1] = test system: P. viticola cytochrome b gene F129 and L129 alleles; test: ARMS/Scorpion F129L SNP detection assay (Ct of allele selective primers on plasmid DNA templates); set-up: species or system Plasmopara viticola
Method: In all ARMS/Scorpion F129L SNP detection assays AmpliTaq Gold enzyme (Applied Biosystems) is included in the reaction mixes at 1 unit/25 ul reaction. The reaction mix also contains 1× buffer (10 mM Tris-HCl (pH8.3), 50 mM KCl, 3.5 mM MgCl2, 0.01% gelatine) and 100 uM dNTP's (Amersham Pharmacia Biotech). Amplifications are performed in an ABI 7700 instrument for continuous fluorescence monitoring. The cycling conditions comprise a preliminary cycle of 95° C. for 10 minutes, followed by 50 cycles of 95° C. for 15 seconds and 60° C. for 45 seconds. Fluorescence is monitored during the annealing/extension stage throughout all cycles.
The ARMS primers are validated for use in such analyses by using plasmid DNA, at various concentrations as template. This is performed in order to check the specificity and sensitivity of the primer designs. Partial wild type cytochrome b gene sequence and the corresponding tract containing the F129L mutation amplified from two P. viticola samples has been cloned into the TA pCR2.1 vector (Invitrogen) as described previously in example 11. 150 ul of the bacterial culture, from the 10 transformants from each cloning event picked for Qiagen Biorobot plasmid DNA Preparations (Qiazen) (see example 11), was saved prior to carrying out these preparations and stored at 4° C. Following sequence analysis wild type and mutant plasmid DNA samples that contained no sequence differences from the consensus sequence were noted. The bacterial culture from which these wild type and mutant plasmid DNA sequences originated was picked for plasmid DNA maxipreps (Qiagen) following the manufacturers protocol. The resulting plasmid DNA was quantified and diluted to a concentration of 1 ug/ul (2×10^11 molecules/ul) using sterile double distilled H2O.
The wild type and mutant cyt b plasmid DNA constructs were diluted further to a concentration of 10 pg/ul (or 2×10^6 molecules/ul) in double distilled H2O and used as template to validate the specificity of the ARMS primers. […]

Compound | EC95 (Plasmopara viticola; P. viticola K2075 (sensitive baseline isolate)) | EC95 (Plasmopara viticola; P. viticola isolate 00I112) | EC95 (Plasmopara viticola; P. viticola isolate 00I116B) | sensitivity to azoxystrobin in the in planta dose response bioassay (Plasmopara viticola; P. viticola sample I112, compared with the sensitive baseline isolate) | sensitivity to azoxystrobin in the in planta dose response bioassay (Plasmopara viticola; P. viticola sample I116B, compared with the sensitive baseline isolate) | sensitivity of isolate to azoxystrobin (percent of Pythium-infected turf area) (Pythium aphanidermatum; P. aphanidermatum isolate 99-150, Heritage 0.005-0.4 oz/1000 sq.ft on turf, assessed five days after inoculation) | sensitivity of isolates to azoxystrobin (percent of Pythium-infected turf area) (Pythium aphanidermatum; all P. aphanidermatum isolates except 99-150, Heritage 0.005-0.4 oz/1000 sq.ft on turf, assessed five days after inoculation) | response of isolate to azoxystrobin (percentage of infected turf) (Pythium aphanidermatum; resistant isolate 99-150, rates up to nine times the recommended commercial rate of Heritage (3.6 oz/1000 sq.ft)) | ED80 values of the sensitive isolates (Pythium aphanidermatum; sensitive P. aphanidermatum isolates, compared with the established baseline distribution) | percentage of infected turf (Pythium aphanidermatum; sensitive isolate P32R, highest rate of Heritage (3.6 oz/1000 sq.ft)) | Mut Ct ([1]; mutant (L129) plasmid template, 2×10^6 molecules/ul) | NTC amplification ([1]; no template (water only) control) | Wt Ct ([1]; wild type (F129) plasmid template, 2×10^6 molecules/ul)
CO/C=C(/C(=O)OC)c1ccccc1Oc1cc(Oc2ccccc2C#N)ncn1 [azoxystrobin] | 0.51 | 11.75 | 2.84 | reduced sensitivity | reduced sensitivity | resistant | sensitive | did not respond | within the range of ED80 values of the baseline distribution | reduced dramatically |  |  | 
Pv129S (DNA GTCCCCAAGGCAAAACATAACCCAT; chemistry not given here) |  |  |  |  |  |  |  |  |  |  | 17.22 | None | 17.0
